Measured values from US20240000883A1, “METHOD OF SENSITIZING CANCERS TO IMMUNOTHERAPY USING IMMUNOMODULATORY AGENTS” (The Trustees of Columbia University in the City of New York, priority 2020, published 2024).

Columns and labels:
[1] = system: de novo pancreatic ductal adenocarcinoma (PDAC); assay: Survival of transgenic KPC mice bearing de novo PDAC under long-term treatment; assay type: in vivo
Protocol: FIG. 1A is a graph showing the percent survival of transgenic Kras-LSL^[…], p53-LSL^172H, Pdx-1-cre (KPC) mice bearing de novo pancreatic ductal adenocarcinoma (PDAC) treated with gemcitabine (GEM).
FIG. 1 presents data showing that iRGD therapy increases CD8^+ T cells in transgenic PDAC mice. […] We randomized mice to therapy with intraperitoneal (IP) gemcitabine alone (100 mg/kg/injection), intravenous (IV) iRGD alone (100 μg/injection) or gemcitabine co-administered with iRGD. Mice were followed with high resolution ultrasound and manual palpation until at least one tumor nodule of 4-5 mm became both palpable and visible on consecutive ultrasound exams. At this point, the mice were randomized to one of the three treatment arms. Treatment was given every 4 days until the animals were sacrificed for having signs of distress. […] Of note, while there was a difference in median survival favoring the combination (71 days versus 84 days), there was a more striking difference in the tail of the survival curve such that survival at 180 days was 0% for gemcitabine alone versus 40% in the iRGD+gemcitabine group.

[2] = system: Tregs in KPC-luc tumors; assay: Targeting of Tregs in KPC-luc PDAC by intravenously injected FAM-iRGD; assay type: in vivo, mice
Protocol: FIG. 2H is an image showing that intravenously injected FAM-iRGD (green) targets CD4^+ (magenta) Foxp3^+ (red) Tregs in KPC-luc PDAC (white arrowheads). Some iRGD-targeted Foxp3^+ cells were CD4^neg (black arrowheads). Blue=DAPI. Scale bar, 50 μm.
Based on the finding that Tregs in PDAC, but not those in the spleen expressed αv integrins and NPR-1 (the receptors of iRGD), studies were performed to determine whether iRGD selectively targets PDAC-infiltrating Tregs. Intravenously injected FAM-iRGD (green) targets CD4^+ (magenta) Foxp3^+ (red) Tregs in KPC-luc PDAC (See FIG. 2H, white arrowheads). Some iRGD-targeted Foxp3^+ cells were CD4^neg (black arrowheads). Blue, DAPI; scale bar, 50 μm.

Nc1ccn([C@@H]2O[C@H](CO)[C@@H](O)C2(F)F)c(=O)n1 [gemcitabine]
survival at 180 days ([1]; 180 days): 0%
median survival ([1]; treatment every 4 days): 71 days

FAM-iRGD: fluorescein (FAM)-labeled iRGD
targeting of CD4+ Foxp3+ Tregs in KPC-luc PDAC [2]: targets
